Experimental data from patent US20250312310A1, “Beta2-adrenergic receptor antagonists for use in treating diabetes or obesity” (NovelYeast bv, priority 2021, published 2025).
“Also recorded” adds a separate entry of the source. Like-named read-outs stand apart in the source and are kept apart here. The star is where a group is joined. Myristoyl = CCCCCCCCCCCCCC(=O)*

How the values were obtained:
[1] = test system: everted sacs prepared from rat intestine; test: Glucose uptake into everted sacs of rat intestine; details: for Effect on basal glucose transport: ICI 118,551 10 μM with 2.5 mM glucose; for Effect on basal glucose transport / Effect on epinephrine stimulation of glucose uptake: colchicine 5 μM; for Effect on epinephrine stimulation of glucose uptake: epinephrine 10 μM, mPKI 1 μM; for Effect on epinephrine stimulation of glucose uptake / Inhibition of the stimulation of glucose transport by mannose: ICI 118,551 10 μM; for Inhibition of the stimulation of glucose transport by mannose: LX4211 2 μM (also inhibits glucose transport itself)
Description: Rats weighing around 150 g were fasted overnight before the experiment, and euthanized by cervical dislocation on the day of the experiment. The abdomen was opened by a midline incision, and a segment of around 35 cm of proximal intestine was isolated. The intestinal segment was rinsed with ice-cold Ringer solution (composition (mM): 140 NaCl, 5 KCl, 1 MgCl2, 2 CaCl2, 10 HEPES, 10 TRIS, gassed with 95% O2 and 5% CO2, pH 7.4), and 4-7 everted sacs were prepared, each approximately 3 cm in length, by tying off the ends of the intestinal segments with threads (46). The sacs were filled with Ringer solution containing 5 mM mannitol (Sigma Aldrich) (to maintain osmotic balance) and L-glutamine (2 mM) (Sigma Aldrich) (as an energy source). Each everted sac was transferred to a separate glass beaker containing 50 mL continuously oxygenated Ringer solution with L-glutamine (2 mM), and maintained in a water bath at 37° C. Then, epinephrine 10 μM (Sigma Aldrich), mannose 5 mM (Sigma Aldrich), ICI 118,551 10 μM (Sigma Aldrich), phlorizin 100 μM (Sigma Aldrich), LX4211 2 μM (MedKoo Biosciences, Inc. USA.) or Ringer solution were added to the respective beaker for a 15-min pre-incubation (concentrations indicate final concentrations of the compounds). For the sacs treated with ICI 118,551, phlorizin or LX 4211, the inhibitors were added before mannose or epinephrine. After pre-incubation, 5 mM glucose, or 2.5 mM glucose for the ICI 118,551 control experiment, was added to the external buffer to initiate glucose transport. […] These samples were analyzed using a glucose assay kit based on glucose oxidase (Sigma Aldrich, for details, see below). […] Also for colchicine, a TRIS-free Ringer solution was used, as TRIS interferes with colchicine activity (130). […] We noticed that it was important to take certain precautions during these experiments: the intestine was never allowed to overfill and be stretched while rinsing the intestinal lumen at the time of isolation and filling the everted sac with Ringer solution. Trapping air bubbles inside the everted sac was avoided. Also, the regions of the intestine where mucus was still present were not used for preparing everted sacs. […] The glucose concentration of the samples was assayed by a glucose assay kit (Sigma Aldrich, GOD/POD method). The assay procedure recommended by the kit was modified for small sample volumes as follows. Fifty μL of sample was transferred to a well of a 96-well plate, and at time zero, the reaction was started by adding 100 μL of assay reagent to the first well, and mixing. Each well was allowed to react for exactly 30 min at 37° C. The reaction was stopped by adding 100 μL of 12 N H2SO4 (Merck) into each well, and carefully mixing. The absorbance was measured at 540 nm with a plate reader (Tecan 200).

human β2-AR [2] = molecular target: T1, human β2-AR (Homo sapiens, UniProt P07550); details: Xenopus oocytes, CFTR readout
Description: Two-Electrode Voltage Clamp (Xenopus oocytes). […] RNA was then transcribed in vitro with the Ribomax kit (Promega) or the mMESSAGE mMACHINE T7 kit (Ambion) following the manufacturer's protocol. RNA was visualized and its quality assessed on RNase-free agarose gels, and stored at −80° C.
For oocyte collection, female Xenopus frogs were anesthetized by submersion in ice water/crushed ice for 30 min. After abdominal incision, the ovarian lobes were pulled out, cut off, and the oocyte clump was placed in ORi. Oocytes were then liberated in ORi-collagenase (1 mg/mL) for 1-2 h on a shaking incubator, and subsequently transferred to a Ca^2+-free solution using one washing step. They were shaken vigorously for maximum 15 min before collecting the individual oocytes in ORi buffer. Stage V oocytes were then selected under the microscope.
For injection of the oocytes, RNA encoding the CFTR and/or β2-AR protein was drawn from a droplet afloat in mineral oil with a glass capillary. Injection volume was 46 nl. The amount of RNA varied between 10 and 25 ng. Injected oocytes were stored in ORi at 16° C. for maximum 3 days until ready for testing. During the measurements, oocytes were continuously clamped to −60 mV. All measurements were recorded using the home-made software, DSPOOC.

[3] = test system: HEK-293 cells (endogenous β2-AR); details: 1 μM epinephrine
Description: Assessment of β2-AR responses in cultured mammalian cells. […] The cell line expressing both β2-AR and Gα16 was selected in two successive transfection steps. First, Flp-In-293 cells were co-transfected with pMET7-ADRB2-FRT and pOG44. After Flp recombinase-assisted stable integration, an isogenic cell pool expressing the β2-AR was selected in hygromycin-containing medium (100 μg/ml). Second, the isogenic cell pool was cotransfected with p-GNA15 and pIRES-Puro2 (Clontech) in a 5:1 ratio, followed by selection of single clones in medium containing puromycin (0.8 μg/ml). Flp-In-293 cells were maintained in DMEM medium (Gibco), containing penicillin/streptomycin (Sigma) and fetal bovine serum (Sigma) (10%). Hygromycin (100 μg/mL) was added for cells containing the ADRB2 construct, and puromycin (1 μg/mL) was added for the cells containing the GNA15 construct. The Flp-In-293 cells were transferred for β2-AR assays to clear- and flat-bottom 96-well plates in DMEM (Gibco) containing dialyzed fetal bovine serum (Sigma). The plates were coated with fibronectin (Sigma). For that purpose, the fibronectin solution was diluted 40 times in PBS, added in the plate wells (60 μL), and removed again after incubation for 1 h, after which the plates were allowed to dry for 1 h. The Fluo-4 NW kit (Invitrogen) was used for detection of calcium signals following the manufacturer's protocol. […]

human β2-AR [4] = molecular target: T1, human β2-AR; test: Calcium response (Fluo-4) in Flp-In-293 cells stably transfected with ADRB2 and GNA15; assay type: cell-based; details: for Activation of the β2-AR by sugars (calcium response): sugars at 50 mM, listed in order of decreasing intensity
Description: Assessment of β2-AR responses in cultured mammalian cells. […] The cell line expressing both β2-AR and Gα16 was selected in two successive transfection steps. First, Flp-In-293 cells were co-transfected with pMET7-ADRB2-FRT and pOG44. After Flp recombinase-assisted stable integration, an isogenic cell pool expressing the β2-AR was selected in hygromycin-containing medium (100 μg/ml). Second, the isogenic cell pool was cotransfected with p-GNA15 and pIRES-Puro2 (Clontech) in a 5:1 ratio, followed by selection of single clones in medium containing puromycin (0.8 μg/ml). Flp-In-293 cells were maintained in DMEM medium (Gibco), containing penicillin/streptomycin (Sigma) and fetal bovine serum (Sigma) (10%). Hygromycin (100 μg/mL) was added for cells containing the ADRB2 construct, and puromycin (1 μg/mL) was added for the cells containing the GNA15 construct. The Flp-In-293 cells were transferred for β2-AR assays to clear- and flat-bottom 96-well plates in DMEM (Gibco) containing dialyzed fetal bovine serum (Sigma). The plates were coated with fibronectin (Sigma). For that purpose, the fibronectin solution was diluted 40 times in PBS, added in the plate wells (60 μL), and removed again after incubation for 1 h, after which the plates were allowed to dry for 1 h. The Fluo-4 NW kit (Invitrogen) was used for detection of calcium signals following the manufacturer's protocol. All compounds tested were dissolved in HBSS (Sigma) at 37° C. Adrenergic antagonists (Sigma) were always added together with the Fluo4 compound, 50 min before addition of agonist. Agonists were added just prior to the actual measurement of the calcium signals generated. The Flexstation II apparatus (Molecular Devices) was used to perform calcium measurements. After overnight growth of the cells in transfer medium in the aforesaid multiwell-96 plates, the medium was removed, the cells incubated with 100 μL of the loading dye solution (Fluo-4), the plates covered with aluminum foil, and incubated at 37° C. for 30-50 min.

[5] = In vivo oral glucose tolerance test; design: species or system rat; details: rats
Description: Animals and diet. All the experiments were approved by the ethical committee on animal experimentation of the KU Leuven. Wistar rats (Harlan Netherlands B.V.) were maintained on a 12 h light-12 h dark cycle, and fed with standard rat food chow and water ad libitum. The oral glucose tolerance test was performed on normal rats weighing around 250 g, which were fasted for 16 h before the test. Blood was sampled by tail vein puncture, and the blood glucose level was measured by glucometer (Verio OneTouch glucometer). Rats were divided in four groups: one with glucose 2 g/kg or glucose 4 g/kg (Sigma Aldrich), both in the presence or absence of CD3-403. […] Glucose or glucose along with CD3-403, dissolved in 0.9% saline, was administered to rats by oral gavage in the respective groups. […] All experiments were conducted around the same time in the morning.

[6] = Caco-2 permeability assay; assay type: in vitro ADME, human; details: human; for recovery at 1 μM: Caco-2, pH 7.4, Caco-2, 1.0 μM; for Papp A→B / Papp B→A: Caco-2, pH 7.4; for Papp at 1 μM: summary, read-out: Permeability in Caco2 assay
From the text: (§1) Caco-2 cell permeability data of compound CD3-403 (apical to basal (A-B) and basal to apical (B-A), measured at pH 7.4 in both apical and basal compartment)

Caco-2 cells = test: Caco-2 permeability assay; assay type: in vitro ADME, human
From the text: as §1

[7] = second CD3 compounds overview table, epinephrine 5 nM, read-out: IC50
[8] = concentration response curve, 1st experiment, read-out: IC50 (nM) 1st experiment
[9] = concentration response curve, 2nd experiment, read-out: IC50 (nM) 2nd experiment
[10] = summary of screening, read-out: IC50
[11] = Caco-2, 1.0 μM, pH 7.4 in both compartments
[12] = Caco-2, test concentration 1.0E−06 M
[13] = Rattus norvegicus, 1.25 h, phlorizin 100 μM, LX4211 2 μM, glucose accumulated after 75 min

CNC[C@H](O)c1ccc(O)c(O)c1 [epinephrine]
Glucose accumulated after 10 min in the sac ([1]; epinephrine 10 μM in external medium, 5 mM glucose, without epinephrine 440±132): 833 ± 255 µM
Activation of the β2-AR (inward current and conductance) (human β2-AR [2]): activated
Calcium response in non-transfected HEK-293 cells [3]: failed to show a calcium response
Calcium response in non-transfected HEK-293 cells ([3]; listed as Epinephrine): did not elicit a calcium response

COc1cc2c(c(OC)c1OC)-c1ccc(OC)c(=O)cc1[C@@H](NC(C)=O)CC2 [Colchicine]
Effect on basal glucose transport [1]: not basal glucose uptake
Effect on epinephrine stimulation of glucose uptake ([1]; phlorizin 100 μM): completely blocked

O=C(CO)[C@@H](O)[C@H](O)[C@H](O)CO [fructose]
Activation of the β2-AR by sugars (calcium response) (human β2-AR [4]): activated

O=C[C@H](O)[C@@H](O)[C@H](O)CO [xylose]
Activation of the β2-AR by sugars (calcium response) (human β2-AR [4]): activated

COc1ccc(OC)c(C(O)C(C)NC(C)(C)C)c1 (centres unmarked) [Butoxamine, reference compound]
IC50 (human β2-AR [4]; [7]): 14300 nM

CC(C)(C)NC[C@@H](O)COc1cccc2[nH]cc(CC(N)=O)c12 [CD3-403]
IC50 (human β2-AR [4]; 5 nM epinephrine, read-out: IC50 of the calcium response elicited by 5 nM epinephrine): 46 nM
IC50 (human β2-AR [4]; [8]): 221 nM
IC50 (human β2-AR [4]; [9]): 46 nM
IC50 (human β2-AR [4]; concentration response curve, old stock, read-out: IC50 (nM) old stock): 40 nM
% INHIBITION (human β2-AR [4]; second CD3 compounds overview table, epinephrine 5 nM): 97%
IC50 (human β2-AR [4]; [7]): 40 nM
IC50 (human β2-AR [4]; [10]): 46 nM
Area under the curve (AUC) of the glucose increase ([5]; glucose 2 g/kg, 100% as baseline, mean±SD, control 8056±2990): 5907±2195
Increase in blood glucose level after oral glucose bolus ([5]; oral gavage, glucose 2 g/kg, 5 μM (0.05 mg/kg) CD3-403): reduced increase in blood glucose level, which was significant at 60 min
Blood glucose concentration after oral glucose bolus ([5]; oral gavage, glucose 4 g/kg, 5 μM (0.05 mg/kg) CD3-403): trend of decreased glucose concentration
recovery at 1 μM ([6]; pH 7.4 in both compartments, read-out: Mean Recovery (A-B)): 83%
recovery at 1 μM ([6]; pH 7.4 in both compartments, read-out: Mean Recovery (B-A)): 94%
Papp A→B ([6]; test concentration 1.0E−06 M): 0.4 ×10⁻⁶ cm/s
Papp B→A ([6]; test concentration 1.0E−06 M): 1.3 ×10⁻⁶ cm/s
Papp at 1 μM ([6]; Caco-2): 0.4 ×10⁻⁶ cm/s
efflux ratio at 1 µM ([6]; Caco-2, 1.0 μM, B-A/A-B): 3.25
Papp A→B at 1 μM [6, 11]: 0.4 ×10⁻⁶ cm/s
Papp B→A at 1 μM [6, 11]: 1.3 ×10⁻⁶ cm/s
Cell permeability (Caco-2 cells; assessed by a Caco-2 permeability assay): very low cell permeability
Efflux (Caco-2 cells; test concentration 1.0E−06 M): 3.25
MeanRecovery (A-B) (Caco-2 cells; test concentration 1.0E−06 M): 83%
MeanRecovery (B-A) (Caco-2 cells; test concentration 1.0E−06 M): 94%

OC[C@H]1O[C@H](O[C@H]2[C@H](O)[C@@H](O)C(O)O[C@@H]2CO)[C@H](O)[C@@H](O)[C@@H]1O (mixture of isomers) [maltose]
Activation of the β2-AR by sugars (calcium response) (human β2-AR [4]): activated

Cc1c[nH]c2cccc(OC[C@H](O)CNC(C)(C)C)c12 [CD3-T1]
IC50 (human β2-AR [4]; [8]): 6 nM
IC50 (human β2-AR [4]; [9]): 0.6 nM
IC50 (human β2-AR [4]; [10]): 6 nM
Papp A→B ([6]; test concentration 1.0E−06 M): 54.7 ×10⁻⁶ cm/s
Papp B→A ([6]; test concentration 1.0E−06 M): 17.8 ×10⁻⁶ cm/s
Papp at 1 μM ([6]; Caco-2): 54.7 ×10⁻⁶ cm/s
efflux ratio at 1 µM [6, 12]: 0.325
MeanRecovery (A-B) (Caco-2 cells; test concentration 1.0E−06 M): 71%
MeanRecovery (B-A) (Caco-2 cells; test concentration 1.0E−06 M): 87%

O=C(CCc1ccc(O)cc1)c1c(O)cc(O)cc1O[C@@H]1O[C@H](CO)[C@@H](O)[C@H](O)[C@H]1O [phlorizin]
inhibition at 100 µM [1, 13]: > 90%
Effect on epinephrine stimulation of glucose uptake ([1]; phlorizin 100 μM): inhibited both basal and enhanced glucose uptake

Myristoylated PKI 14-22 amide (Myristoyl-GRTGRRNAI-NH2; SMILES CCCCCCCCCCCCCC(=O)NCC(=O)N[C@@H](CCCNC(=N)N)C(=O)N[C@H](C(=O)NCC(=O)N[C@@H](CCCNC(=N)N)C(=O)N[C@@H](CCCNC(=N)N)C(=O)N[C@@H](CC(N)=O)C(=O)N[C@@H](C)C(=O)N[C@H](C(N)=O)[C@@H](C)CC)[C@@H](C)O; UniProt P61925 15-23, looked up, fragment)
Effect on epinephrine stimulation of glucose uptake ([1]; phlorizin 100 μM): partially inhibited

CCOc1ccc(Cc2cc([C@@H]3O[C@H](SC)[C@@H](O)[C@H](O)[C@H]3O)ccc2Cl)cc1 [LX4211]
Inhibition of the stimulation of glucose transport by mannose [1]: completely inhibited
inhibition at 2 µM [1, 13]: > 90%

CC(C)(C)NCC(O)COc1cccc2c1CC(O)C(O)C2 (centres unmarked) [nadolol, reference compound]
Inhibition of the epinephrine response (human β2-AR [4]; 200 μM antagonist, 20 nM epinephrine): Inhibition
Inhibition of sugar responses (human β2-AR [4]; 200 μM antagonist, 70 mM sugar): inhibited; also recorded: Inhibition
Block of the calcium response to epinephrine (human β2-AR [4]; Flp-In-293 β2-AR/Gα16 cells, Fluo4 fluorescence (FIG. 2a)): blocked

CC(C)(C)NCC(O)COc1cccc2[nH]cc(CC(=O)NN)c12 (racemic) [CD3 X]
IC50 (human β2-AR [4]; [10]): 70 nM
Permeability class in Caco2 assay (Caco-2 cells; summary): low permeability

Cc1ccc(OCC(O)C(C)NC(C)C)c2c1CCC2 (centres unmarked) [ICI 118,551]
Effect on basal glucose transport [1]: did not have any effect
Inhibition of the stimulation of glucose transport by mannose [1]: abolished
Effect on epinephrine stimulation of glucose uptake ([1]; phlorizin 100 μM): completely prevented

O=CC[C@@H](O)[C@H](O)[C@H](O)CO [2 deoxy-D-glucose]
Activation of the β2-AR by sugars (calcium response) (human β2-AR [4]): activated

N[C@H]1C(O)O[C@H](CO)[C@@H](O)[C@@H]1O (some centres unmarked) [Glucosamine]
Activation of the β2-AR by sugars (calcium response) (human β2-AR [4]): very little effect

OC[C@H]1O[C@H](O[C@H]2O[C@H](CO)[C@@H](O)[C@H](O)[C@H]2O)[C@H](O)[C@@H](O)[C@@H]1O [trehalose]
Activation of the β2-AR by sugars (calcium response) (human β2-AR [4]): activated

maltotriose
EC50 (human β2-AR [4]; calcium response (FIG. 2d)): ~10000 µM
Activation of the β2-AR by sugars (calcium response) (human β2-AR [4]): activated

CC(C)NC[C@@H](O)COc1cccc2[nH]cc(CC(=O)N(C)C)c12 [CD3-T3]
IC50 (human β2-AR [4]; [8]): 66 nM
IC50 (human β2-AR [4]; [9]): 78 nM
IC50 (human β2-AR [4]; [10]): 78 nM
Papp A→B ([6]; test concentration 1.0E−06 M): 0.1 ×10⁻⁶ cm/s
Papp B→A ([6]; test concentration 1.0E−06 M): 3.2 ×10⁻⁶ cm/s
Papp at 1 μM ([6]; Caco-2): 0.1 ×10⁻⁶ cm/s
efflux ratio at 1 µM [6, 12]: 32
MeanRecovery (A-B) (Caco-2 cells; test concentration 1.0E−06 M): 76%
MeanRecovery (B-A) (Caco-2 cells; test concentration 1.0E−06 M): 90%
